Experimental data as given in patent US6689790B2, “Substituted triazolopyridine compounds” (Hoffmann-La Roche Inc., priority 2001, dated 2004).
pKi: −log10 of the molar value.

How the values were obtained:
[1] = target: T1, human adenosine A2A receptor (Homo sapiens, UniProt P29274); assay: [3H]-SCH-58261 binding assay, human adenosine A2A receptor (CHO cell membranes, SPA); details: for pKi: [3H]-SCH-58261 displacement, Ki by Cheng-Prussoff, table of preferred compounds, read-out: hA2a Ki; for Select. A1/A2a: ratio hA1 Ki / hA2a Ki
T1 construct: expressed in transfected cells; host or cells: CHO cells, semliki forest virus expression system; washed membranes

hA1 = target: T2, hA1 (Homo sapiens, UniProt P30542); assay: hA1 receptor affinity (Ki); format: binding; details: list of examples 10-108
T2 sequence (P30542 1-326): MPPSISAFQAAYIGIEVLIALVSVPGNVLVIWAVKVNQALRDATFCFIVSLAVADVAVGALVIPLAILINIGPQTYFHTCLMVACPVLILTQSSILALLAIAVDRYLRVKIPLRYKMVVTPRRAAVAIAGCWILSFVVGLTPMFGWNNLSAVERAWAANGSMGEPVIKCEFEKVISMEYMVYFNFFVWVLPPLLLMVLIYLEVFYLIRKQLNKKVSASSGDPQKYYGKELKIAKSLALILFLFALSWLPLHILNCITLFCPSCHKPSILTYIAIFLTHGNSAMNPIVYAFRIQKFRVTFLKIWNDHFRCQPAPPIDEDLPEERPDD

T1 sequence (P29274 whole entry): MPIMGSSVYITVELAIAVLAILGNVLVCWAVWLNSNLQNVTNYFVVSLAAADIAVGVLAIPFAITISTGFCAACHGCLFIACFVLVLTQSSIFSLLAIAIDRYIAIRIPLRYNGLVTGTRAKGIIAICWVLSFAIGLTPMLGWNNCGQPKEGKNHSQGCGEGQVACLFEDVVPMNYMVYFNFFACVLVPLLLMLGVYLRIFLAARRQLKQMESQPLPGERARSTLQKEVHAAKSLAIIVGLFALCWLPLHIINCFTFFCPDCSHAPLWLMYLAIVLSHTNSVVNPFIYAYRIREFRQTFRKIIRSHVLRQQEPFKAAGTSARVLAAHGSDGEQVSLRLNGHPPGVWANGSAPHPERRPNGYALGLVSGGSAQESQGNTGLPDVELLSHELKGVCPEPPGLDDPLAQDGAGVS

Nc1cc(C(=O)N(Cc2ccccc2)Cc2ccccc2)cn2nc(-c3cccs3)nc12 [Example 64, 8-Amino-2-thiophen-2-yl-[1,2,4]triazolo[1,5-a]pyridine-6-carboxylic acid dibenzylamide]
pKi [1]: 7.08
Select. A1/A2a [1]: 3.7
pKi (hA1): 6.51

Cc1ccc(-c2nc3c(N)cc(C(=O)N4CCCC4C)cn3n2)o1 (stereo not drawn) [Example 85, [8-Amino-2-(5-methyl-furan-2-yl)-[1,2,4]triazolo[1,5-a]pyridin-6-yl]-(2-methyl-pyrrolidin-1-yl)-methanone]
pKi [1]: 7.12
Select. A1/A2a [1]: 18.1
pKi (hA1): 5.87

Cc1ccc(-c2nc3c(N)cc(C(=O)N4CCCC(C)C4)cn3n2)o1 (stereo not drawn) [Example 88, [8-Amino-2-(5-methyl-furan-2-yl)-[1,2,4]triazolo[1,5-a]pyridin-6-yl]-(3-methyl-piperidin-1-yl)-methanone]
pKi [1]: 7.25
Select. A1/A2a [1]: 24
pKi (hA1): 5.87
